Data set [1] has as its system luciferase expression in the liver (FLuc mRNA). The data set is described as follows: Luciferase mRNA in vivo evaluation using lipid nanoparticle compositions. Set-up: species or system mice (C57BL/6, CD-1). The settings on record: LNP with FLuc mRNA, tail vein injection, liver 4 hours after administration; for Liver Luc (ng luc/g liver), *dosed at 0.3 mg/kg: dosed at 0.3 mg/kg (footnote *); for Liver Luc @ 0.5 mg/kg (ng luc/g liver): 0.5 mg mRNA/kg. How it is done: A lipid of structure (I), DSPC, cholesterol and PEG-lipid were solubilized in ethanol at a molar ratio of 50:10:38.5:1.5 or 47.5:10:40.8:1.7. Lipid nanoparticles (LNP) were prepared at a total lipid to mRNA weight ratio of approximately 10:1 to 30:1. Briefly, the mRNA was diluted to 0.2 mg/mL in 10 to 50 mM citrate buffer, pH 4. Syringe pumps were used to mix the ethanolic lipid solution with the mRNA aqueous solution at a ratio of about 1:5 to 1:3 (vol/vol) with total flow rates above 15 mL/min. The ethanol was then removed and the external buffer replaced with PBS by dialysis. Finally, the lipid nanoparticles were filtered through a 0.2 μm pore sterile filter.
Studies were performed in 6-8 week old female C57BL/6 mice (Charles River) 8-10 week old CD-1 (Harlan) mice (Charles River) according to guidelines established by an institutional animal care committee (ACC) and the Canadian Council on Animal Care (CCAC). Varying doses of mRNA-lipid nanoparticle were systemically administered by tail vein injection and animals euthanized at a specific time point (e.g., 4 hours) post-administration. Liver and spleen were collected in pre-weighed tubes, weights determined, immediately snap frozen in liquid nitrogen and stored at −80° C. until processing for analysis.
For liver, approximately 50 mg was dissected for analyses in a 2 mL FastPrep tubes (MP Biomedicals, Solon OH). ¼″ ceramic sphere (MP Biomedicals) was added to each tube and 500 μL of Glo Lysis Buffer—GLB (Promega, Madison Wis.) equilibrated to room temperature was added to liver tissue. Liver tissues were homogenized with the FastPrep24 instrument (MP Biomedicals) at 2×6.0 m/s for 15 seconds. Homogenate was incubated at room temperature for 5 minutes prior to a 1:4 dilution in GLB and assessed using SteadyGlo Luciferase assay system (Promega). Specifically, 50 μL of diluted tissue homogenate was reacted with 50 μL of SteadyGlo substrate, shaken for 10 seconds followed by 5 minute incubation and then quantitated using a CentroXS^3 LB 960 luminometer (Berthold Technologies, Germany). The amount of protein assayed was determined by using the BCA protein assay kit (Pierce, Rockford, Ill.). Relative luminescence units (RLU) were then normalized to total μg protein assayed. To convert RLU to ng luciferase a standard curve was generated with QuantiLum Recombinant Luciferase (Promega).
The FLuc mRNA (L-6107or L-7602) from Trilink Biotechnologies will express a luciferase protein, originally isolated from the firefly, photinus pyralis. FLuc is commonly used in mammalian cell culture to measure both gene expression and cell viability. It emits bioluminescence in the presence of the substrate, luciferin. This capped and polyadenylated mRNA is fully substituted with 5-methylcytidine and pseudouridine.
Compounds of structure (I) were formulated using the following molar ratio: 47.5% cationic lipid/ 10% distearoylphosphatidylcholine (DSPC)/40.8% Cholesterol/1.7% PEG lipid (“PEG-DMA” 2-[2-(ω-methoxy(polyethyleneglycol2000)ethoxy]-N,N-ditetradecylacetamide). Relative activity was determined by measuring luciferase expression in the liver 4 hours following administration via tail vein injection as described in Example 1.
The cationic lipids shown in Table 2 have previously been tested with nucleic acids. For comparative purposes, these lipids were also used to formulate lipid nanoparticles containing the FLue mRNA (L-6107) using an in line mixing method, as described in Example 1 and in PCT/US10/22614, which is hereby incorporated by reference in its entirety. Lipid nanoparticles may be formulated using the following molar ratio: 50% Cationic lipid/10% distearoylphosphatidylcholine (DSPC)/38.5% Cholesterol/1.5% PEG lipid (“PEG-DMG”, i.e., 1-(monomethoxy-polyethyleneglycol)-2,3-dimyristoylglycerol, with an average PEG molecular weight of 2000). In alternate embodiments, cationic lipid, DSPC, cholesterol and PEG-lipid are formulated at a molar ratio of approximately 47.5:10:40.8:1.7. […]

Data set [2] in a line: Determination of pKa of formulated lipids (TNS fluorescence assay in lipid nanoparticles). The data set is classed as physicochemical. The settings on record: probe TNS (2-(p-toluidino)-6-napthalene sulfonic acid); lipid formulated in LNP (compound/DSPC/cholesterol/PEG-lipid); pH giving half-maximal TNS fluorescence. The text has this:
As described elsewhere, the pKa of formulated lipids is correlated with the effectiveness of LNPs for delivery of nucleic acids (see Jayaraman et al, Angewandte Chemie, International Edition (2012), 51(34), 8529-8533; Semple et al, Nature Biotechnology 28, 172-176 (2010)). In some embodiments, the preferred range of pKa is ˜5 to ˜7. […] Lipid nanoparticles comprising compound of structure (I)/DSPC/cholesterol/PEG-lipid (50/10/38.5/1.5 or 47.5:10:40.8:1.7 mol %) in PBS at a concentration of 0.4 mM total lipid were prepared using the in-line process as described in Example 1. TNS was prepared as a 100 μM stock solution in distilled water. Vesicles were diluted to 24 μM lipid in 2 mL of buffered solutions containing 10 mM HEPES, 10 mM MES, 10 mM ammonium acetate, and 130 mM NaCl, where the pH ranged from 2.5 to 11. An aliquot of the TNS solution was added to give a final concentration of 1 μM and following vortex mixing fluorescence intensity was measured at room temperature in a SLM Aminco Series 2 Luminescence Spectrophotometer using excitation and emission wavelengths of 321 nm and 445 nm. A sigmoidal best fit analysis was applied to the fluorescence data and the pKa was measured as the pH giving rise to half-maximal fluorescence intensity.

Broadly, the pKa is the pH at which an ionisable group is half protonated. Read a low pKa as a stronger acid or weaker base. Consider `CCCCCCCCCN(CCO)CCN(CCCCCC(=O)OCC(CCCCCC)CCCCCCCC)CCCCCC(=O)OCC(CCCCCC)CCCCCCCC` (centres unmarked) [Compound 1], for which the “Liver Luc (ng luc/g liver), *dosed at 0.3 mg/kg” value in data set [1] is 330 ± 70* ng luc/g liver. This molecule gave a pKa in data set [2] of 5.83.
On the same counts, the results for `CCCCCCCCCN(CCCO)CCN(CCCCCC(=O)OCC(CCCCCC)CCCCCCCC)CCCCCC(=O)OCC(CCCCCC)CCCCCCCC` (centres unmarked) [Compound 2] are 553 ± 291* ng luc/g liver and 5.76.
Regarding `CCCCCCCCC(CCCCCC)COC(=O)CCCCCCCN(CCCCCCCC(=O)OCC(CCCCCC)CCCCCCCC)CCN(CCO)CCCO` (centres unmarked) [Compound 3], the pKa in data set [2] was 7.18.
`CCCCCCCCC(CCCCCC)COC(=O)CCCCCN(CCCCCC(=O)OCC(CCCCCC)CCCCCCCC)CCN(C)CCO` (centres unmarked) [Compound 4]: the “Liver Luc (ng luc/g liver), *dosed at 0.3 mg/kg” value in data set [1] was 50 ± 14* ng luc/g liver. In addition, in data set [2], the pKa turned out to be 6.91.
For the molecule `CCCCCCCCC(CCCCCC)COC(=O)CCCCCN(CCCCCC(=O)OCC(CCCCCC)CCCCCCCC)CCN(C)CCCCCCCCCO` (centres unmarked) [Compound 5], the “Liver Luc @ 0.5 mg/kg (ng luc/g liver)” value in data set [1] is 1597 ± 456 ng luc/g liver. Besides, in data set [2], the pKa turned out to be 6.17.
Molecule `CCCCCCCCC(CCCCCC)COC(=O)CCCCCCCN(CCCCCCCC(=O)OCC(CCCCCC)CCCCCCCC)CCN(CC)CCCO` (centres unmarked) [Compound 6] registered a pKa in data set [2] of 6.82.
As to `CCCCCCCCC(CCCCCC)COC(=O)CCCCCN(CCCCCC(=O)OCC(CCCCCC)CCCCCCCC)CCN(C)CCCCCCO` (centres unmarked) [Compound 7], in data set [1], the “Liver Luc @ 0.5 mg/kg (ng luc/g liver)” value is given as 16 ± 14 ng luc/g liver. Besides, in data set [2], the pKa is 6.69.
For `CCCCCCC(CCCC)C(=O)OCCCCCCCCCN(CCCCCCCCCOC(=O)C(CCCC)CCCCCC)CCN(C)CCCCCCCCCO` (centres unmarked) [Compound 8], in that order: 54 ± 10 ng luc/g liver and 6.08.

Values taken from US11639329B2, “Lipids for use in lipid nanoparticle formulations” (ACUITAS THERAPEUTICS, INC., priority 2017, dated 2023).
